This note sets out measurements from ChEMBL document CHEMBL5226304, “Fused-azepinones: Emerging scaffolds of medicinal importance” (Eur J Med Chem, 2021).

The target in assay [1] is Mitogen-activated protein kinase 3 (Homo sapiens, UniProt P27361). The experiment in a line: Inhibition of Erk1 (unknown origin).
The target of assay [2] is Proto-oncogene tyrosine-protein kinase Src (Homo sapiens, UniProt P12931). The experiment in a line: Inhibition of c-Src (unknown origin).
The target of a further assay is CDK3/Cyclin E (Homo sapiens, UniProt Q00526). The experiment in a line: Inhibition of CDK3/Cyclin E (unknown origin). Type of assay: protein-complex assay.
A further assay has as its target DNA topoisomerase 1 (Homo sapiens, UniProt P11387). Put plainly: Inhibition of topoisomerase 1 (unknown origin).
The species named for assay [3] is Mus musculus. Put plainly: Neuroprotective activity in Swiss mouse cortical neurons assessed as increase in cell viability in presence of H2O2 at 10 nM relative to control. Type of assay: functional.
The species named for assay [4] is Bos taurus. The experiment in a line: Inhibition of Interleukin-1- stimulated iNOS gene expression in bovine articular cartilage. As to conditions: Cartilage tissue. Type of assay: functional.
Another assay has as its system KB 3-1. The experiment in a line: Cytotoxicity against human KB-3-1 cells by MTT assay. Type of assay: functional, cell-based. For orientation: Formazan colour is commonly taken as a measure of viable cells.
Assay [5] is described as follows: Inhibition of IL-1 stimulated PGE2 production in human rheumatoid synovial fibroblasts. Type of assay: functional, cell-based. As to conditions: Fibroblast.
For assay [6], the target named is DNA topoisomerase 2-alpha (Homo sapiens, UniProt P11388). The experiment in a line: Inhibition of topoisomerase 2 alpha (unknown origin).
The test system of assay [7] is Human immunodeficiency virus 1. Put plainly: Antiviral activity against HIV1 assessed as inhibition of LC5-RIC cells infection at 3.1 uM relative to control. Type of assay: functional.
Assay [8] addresses Cyclin-dependent kinase 5/CDK5 activator 1 (Homo sapiens, UniProt Q00535). The experiment in a line: Inhibition of CDK5/p25 (unknown origin). Type of assay: protein-complex assay.
In assay [9] the target is Tyrosine-protein kinase ABL1 (Homo sapiens, UniProt P00519). Put plainly: Inhibition of c-abl (unknown origin).
For the next assay, the target named is Casein kinase I. The experiment in a line: Inhibition of CK1 (unknown origin). In kind it is protein assay, Homo sapiens.
A further assay concerns the target Casein kinase 2 (Homo sapiens, UniProt P67870+P68400+P19784+Q8NEV1). Put plainly: Inhibition of CK2 (unknown origin). Type of assay: protein assay.
Assay [10] has as its target Human immunodeficiency virus type 1 reverse transcriptase (Human immunodeficiency virus 1) (UniProt Q72547). Put plainly: Inhibition of HIV1 Reverse transcriptase at 25 uM relative to control.
A short description of assay [11]: Inhibition of MAPKK (unknown origin). Also on record: species or system Homo sapiens.
The target in another assay is CDK6/cyclin D2 (Homo sapiens, UniProt P30279+Q00534). Put plainly: Inhibition of CDK6/Cyclin D2 (unknown origin). Type of assay: protein-complex assay.
Assay [12] is filed under the species Bos taurus. The experiment in a line: Inhibition of Interleukin-1- stimulated proteoglycan degradation in bovine articular cartilage. Type of assay: functional. As to conditions: Cartilage tissue.
Assay [13] concerns the target Cyclin-dependent kinase 4/cyclin D1 (Homo sapiens, UniProt P11802). The experiment in a line: Inhibition of CDK4/Cyclin D1 (unknown origin). Type of assay: protein-complex assay.
The next assay relates to L5178Y. The experiment in a line: Cytotoxicity against mouse L5178Y cells by MTT assay. In kind it is functional, cell-based.
Assay [14] is described as follows: Inhibition of cAMP-dependent protein kinase (unknown origin). The arrangement: species or system Homo sapiens.
In assay [15] the test system is THP-1. Put plainly: Antiinflammatory activity in human THP-1 cells assessed as inhibition of LPS-stimulated IL2 production. In kind it is functional, cell-based.
In a further assay the target is CDK1/Cyclin E (Homo sapiens, UniProt P06493). Put plainly: Inhibition of CDK1/Cyclin E (unknown origin). In kind it is protein-complex assay.
In assay [16] the test system is THP-1. The experiment in a line: Antiinflammatory activity in human THP-1 cells assessed as inhibition of LPS-stimulated TNFalpha production. In kind it is functional, cell-based.
Assay [17] can be described thus: Inhibition of cGMP-dependent protein kinase (unknown origin). The arrangement: species or system Homo sapiens.
The species named for assay [18] is Mus musculus. Put plainly: Neuroprotective activity in Swiss mouse cortical neurons assessed as increase in cell viability in presence of H2O2 at 1 nM relative to control. In kind it is functional.
In assay [19] the test system is Rattus norvegicus. The experiment in a line: Hypotensive effect in rat vascular smooth muscles assessed as reduction in arterial blood pressure at 5 mg/kg measured after 15 mins. In kind it is functional. As to conditions: Smooth muscle tissue, 0.25 h.
A further assay relates to MOLT-3. The experiment in a line: Cytotoxicity against human MOLT-3 cells by MTT assay. Type of assay: functional, cell-based.
For the next assay, the system named is HepG2. Put plainly: Cytotoxicity against human HepG2 cells by MTT assay. Type of assay: functional, cell-based.
The target in the next assay is Tubulin. Put plainly: Inhibition of tubulin polymerization (unknown origin). Type of assay: protein-complex assay, Homo sapiens.
A further assay relates to A549. The experiment in a line: Cytotoxicity against human A549 cells by MTT assay. In kind it is functional, cell-based.
For a further assay, the species on record is Homo sapiens. The experiment in a line: Selectivity ratio of IC50 for Chk1 (unknown origin) to IC50 for (unknown origin).
In assay [20] the test system is Rattus norvegicus. The experiment in a line: Antiarthritic activity in adjuvant-induced arthritis rat model assessed as reduction in paw swelling at 20 mg/kg, ip administered for day 6 to 10 post adjuvant measured on day 16 to 20 relative to control. In kind it is functional.
Assay [21] addresses Cyclin-dependent kinase 1/cyclin B (Homo sapiens, UniProt P06493). The experiment in a line: Inhibition of CDK1/Cyclin B (unknown origin) in presence of gamma32P-ATP by scintillation counter analysis. Type of assay: protein-complex assay.
In a further assay the target is Protein kinase C (PKC). The experiment in a line: Inhibition of Protein kinase C (unknown origin). Type of assay: protein assay, Homo sapiens.
The target in assay [22] is Dual specificity mitogen-activated protein kinase kinase 1 (Homo sapiens, UniProt Q02750). The experiment in a line: Inhibition of MEK1 (unknown origin).
The subject of assay [23] is Rattus norvegicus. The experiment in a line: Antiarthritic activity in adjuvant-induced arthritis rat model assessed as reduction in paw swelling at 10 mg/kg, ip administered for day 6 to 10 post adjuvant measured on day 16 to 20 relative to control. In kind it is functional.
A further assay relates to MCF7. Put plainly: Growth inhibition of human MCF7 cells at 1 uM by MTT assay relative to control. Type of assay: functional. The settings on record: read-out: GI.
The test system of another assay is P388. The experiment in a line: Cytotoxicity against mouse P388 cells. In kind it is functional. The settings on record: read-out: ED50 (the source's name).

Each structure is given as a SMILES string. In brackets after ≈: the same amount, converted by molar mass. A value given as a limit tells only on which side of the number the result lay.

Sequence of Cyclin-dependent kinase 5/CDK5 activator 1 (Q00535 whole entry): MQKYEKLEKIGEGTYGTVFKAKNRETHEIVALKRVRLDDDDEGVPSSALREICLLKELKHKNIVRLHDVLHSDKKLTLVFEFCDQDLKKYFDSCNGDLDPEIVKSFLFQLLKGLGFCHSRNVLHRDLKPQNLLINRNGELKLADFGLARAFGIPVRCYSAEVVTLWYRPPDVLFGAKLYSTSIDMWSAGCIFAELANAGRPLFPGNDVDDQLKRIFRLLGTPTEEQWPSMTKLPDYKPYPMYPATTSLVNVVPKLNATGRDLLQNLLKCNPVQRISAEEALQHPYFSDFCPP
Sequence of Cyclin-dependent kinase 5/CDK5 activator 1 (Q15078 whole entry, further chain): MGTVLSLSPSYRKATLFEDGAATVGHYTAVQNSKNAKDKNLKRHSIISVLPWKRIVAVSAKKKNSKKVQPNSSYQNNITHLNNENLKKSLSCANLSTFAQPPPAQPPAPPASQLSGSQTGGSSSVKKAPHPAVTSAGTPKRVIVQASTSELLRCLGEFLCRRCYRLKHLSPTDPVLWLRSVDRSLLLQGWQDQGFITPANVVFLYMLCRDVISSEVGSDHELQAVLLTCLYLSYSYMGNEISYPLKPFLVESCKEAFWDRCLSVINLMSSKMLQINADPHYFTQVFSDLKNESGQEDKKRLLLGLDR
Sequence of DNA topoisomerase 1 (P11387 whole entry): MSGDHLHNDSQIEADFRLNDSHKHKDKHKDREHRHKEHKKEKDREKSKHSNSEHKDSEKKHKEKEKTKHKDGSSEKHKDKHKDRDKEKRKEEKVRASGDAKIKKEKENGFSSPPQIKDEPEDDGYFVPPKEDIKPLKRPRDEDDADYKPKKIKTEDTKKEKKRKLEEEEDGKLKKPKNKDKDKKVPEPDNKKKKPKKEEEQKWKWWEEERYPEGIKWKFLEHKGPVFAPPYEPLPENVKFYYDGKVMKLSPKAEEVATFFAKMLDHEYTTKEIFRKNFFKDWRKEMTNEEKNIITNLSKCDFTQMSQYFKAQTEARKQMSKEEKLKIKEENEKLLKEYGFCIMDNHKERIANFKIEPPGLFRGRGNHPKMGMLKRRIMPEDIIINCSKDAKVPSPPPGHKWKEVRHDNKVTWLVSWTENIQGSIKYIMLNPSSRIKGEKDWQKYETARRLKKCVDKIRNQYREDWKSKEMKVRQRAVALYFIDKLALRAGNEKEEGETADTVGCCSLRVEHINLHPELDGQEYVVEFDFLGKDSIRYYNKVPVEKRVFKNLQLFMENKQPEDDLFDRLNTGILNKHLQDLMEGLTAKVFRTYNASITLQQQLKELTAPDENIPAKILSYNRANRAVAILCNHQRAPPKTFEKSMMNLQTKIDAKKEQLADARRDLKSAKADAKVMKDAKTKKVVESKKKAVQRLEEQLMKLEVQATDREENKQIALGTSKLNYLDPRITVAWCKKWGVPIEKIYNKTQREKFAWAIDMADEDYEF
Sequence of CDK3/Cyclin E (P24864 whole entry): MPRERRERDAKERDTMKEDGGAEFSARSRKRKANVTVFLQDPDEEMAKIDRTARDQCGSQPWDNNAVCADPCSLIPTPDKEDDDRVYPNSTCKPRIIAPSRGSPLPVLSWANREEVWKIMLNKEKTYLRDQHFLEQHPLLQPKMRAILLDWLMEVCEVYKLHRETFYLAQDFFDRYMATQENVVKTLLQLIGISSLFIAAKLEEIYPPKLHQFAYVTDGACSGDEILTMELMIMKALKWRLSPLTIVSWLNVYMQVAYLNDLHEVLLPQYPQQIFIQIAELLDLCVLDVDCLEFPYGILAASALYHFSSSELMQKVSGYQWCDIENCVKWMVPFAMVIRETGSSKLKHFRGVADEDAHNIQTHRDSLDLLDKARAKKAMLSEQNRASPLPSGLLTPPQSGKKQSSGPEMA
Sequence of CDK3/Cyclin E (Q00526 whole entry): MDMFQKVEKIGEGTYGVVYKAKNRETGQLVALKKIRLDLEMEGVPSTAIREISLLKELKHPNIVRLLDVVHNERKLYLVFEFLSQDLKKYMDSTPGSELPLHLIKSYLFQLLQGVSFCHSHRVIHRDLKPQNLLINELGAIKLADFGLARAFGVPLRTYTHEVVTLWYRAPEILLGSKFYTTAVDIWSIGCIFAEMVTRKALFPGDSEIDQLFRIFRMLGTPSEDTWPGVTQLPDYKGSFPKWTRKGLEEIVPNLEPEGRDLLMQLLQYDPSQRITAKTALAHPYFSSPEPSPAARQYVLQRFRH
Sequence of Tyrosine-protein kinase ABL1 (P00519 whole entry): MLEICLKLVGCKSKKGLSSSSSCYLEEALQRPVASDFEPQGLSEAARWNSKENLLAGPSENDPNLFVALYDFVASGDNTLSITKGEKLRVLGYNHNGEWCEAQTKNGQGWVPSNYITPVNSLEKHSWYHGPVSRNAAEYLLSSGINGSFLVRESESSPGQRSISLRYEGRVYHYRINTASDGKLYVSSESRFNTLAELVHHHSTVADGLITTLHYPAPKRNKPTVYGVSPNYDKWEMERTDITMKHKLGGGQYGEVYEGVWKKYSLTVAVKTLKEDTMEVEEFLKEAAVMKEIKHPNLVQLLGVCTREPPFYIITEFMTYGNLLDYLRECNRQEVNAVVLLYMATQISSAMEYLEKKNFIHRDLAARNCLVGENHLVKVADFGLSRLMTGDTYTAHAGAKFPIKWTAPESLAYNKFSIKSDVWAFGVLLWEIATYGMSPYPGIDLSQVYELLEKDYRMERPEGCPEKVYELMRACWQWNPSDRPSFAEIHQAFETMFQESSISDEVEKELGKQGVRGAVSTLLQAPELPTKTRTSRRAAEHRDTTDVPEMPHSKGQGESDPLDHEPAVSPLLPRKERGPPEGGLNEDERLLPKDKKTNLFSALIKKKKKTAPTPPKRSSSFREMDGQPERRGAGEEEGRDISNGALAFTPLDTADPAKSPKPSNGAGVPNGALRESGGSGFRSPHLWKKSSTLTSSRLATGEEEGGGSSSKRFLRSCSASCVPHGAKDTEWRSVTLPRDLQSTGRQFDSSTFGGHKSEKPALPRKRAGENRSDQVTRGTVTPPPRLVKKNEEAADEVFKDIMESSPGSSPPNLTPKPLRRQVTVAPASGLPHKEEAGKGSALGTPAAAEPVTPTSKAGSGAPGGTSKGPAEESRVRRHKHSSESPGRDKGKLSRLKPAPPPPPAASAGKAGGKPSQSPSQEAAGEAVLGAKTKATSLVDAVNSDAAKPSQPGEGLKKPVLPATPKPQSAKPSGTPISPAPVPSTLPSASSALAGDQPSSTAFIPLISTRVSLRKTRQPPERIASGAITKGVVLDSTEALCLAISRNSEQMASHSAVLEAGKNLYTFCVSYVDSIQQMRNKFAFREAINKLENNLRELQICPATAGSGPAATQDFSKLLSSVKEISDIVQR
Sequence of Dual specificity mitogen-activated protein kinase kinase 1 (Q02750 whole entry): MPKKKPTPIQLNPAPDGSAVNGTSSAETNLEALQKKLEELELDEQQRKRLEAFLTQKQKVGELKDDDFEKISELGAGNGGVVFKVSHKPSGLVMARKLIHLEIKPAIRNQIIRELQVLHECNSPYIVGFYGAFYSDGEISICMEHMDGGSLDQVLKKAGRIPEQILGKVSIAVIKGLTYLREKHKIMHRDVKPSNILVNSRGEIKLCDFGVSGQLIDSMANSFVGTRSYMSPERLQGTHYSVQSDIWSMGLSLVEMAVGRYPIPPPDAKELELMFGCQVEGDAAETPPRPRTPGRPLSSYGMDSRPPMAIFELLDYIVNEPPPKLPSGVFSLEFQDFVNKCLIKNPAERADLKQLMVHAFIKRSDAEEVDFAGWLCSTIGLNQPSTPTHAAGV
Sequence of Proto-oncogene tyrosine-protein kinase Src (P12931 2-536 limits assumed): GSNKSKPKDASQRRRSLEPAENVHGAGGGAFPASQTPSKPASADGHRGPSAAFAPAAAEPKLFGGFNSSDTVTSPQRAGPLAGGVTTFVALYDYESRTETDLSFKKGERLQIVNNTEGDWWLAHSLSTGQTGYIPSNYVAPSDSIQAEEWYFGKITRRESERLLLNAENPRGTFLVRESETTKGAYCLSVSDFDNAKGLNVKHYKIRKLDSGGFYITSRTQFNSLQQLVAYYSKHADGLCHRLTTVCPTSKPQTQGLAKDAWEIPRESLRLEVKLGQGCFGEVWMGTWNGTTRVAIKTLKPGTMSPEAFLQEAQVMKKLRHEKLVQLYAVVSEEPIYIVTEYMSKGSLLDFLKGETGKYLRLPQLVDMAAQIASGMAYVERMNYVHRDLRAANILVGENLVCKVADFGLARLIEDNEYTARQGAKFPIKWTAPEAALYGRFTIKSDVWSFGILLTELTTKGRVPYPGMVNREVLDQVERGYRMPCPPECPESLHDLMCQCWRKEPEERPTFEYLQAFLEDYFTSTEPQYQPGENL
Sequence of CDK6/cyclin D2 (Q00534 whole entry): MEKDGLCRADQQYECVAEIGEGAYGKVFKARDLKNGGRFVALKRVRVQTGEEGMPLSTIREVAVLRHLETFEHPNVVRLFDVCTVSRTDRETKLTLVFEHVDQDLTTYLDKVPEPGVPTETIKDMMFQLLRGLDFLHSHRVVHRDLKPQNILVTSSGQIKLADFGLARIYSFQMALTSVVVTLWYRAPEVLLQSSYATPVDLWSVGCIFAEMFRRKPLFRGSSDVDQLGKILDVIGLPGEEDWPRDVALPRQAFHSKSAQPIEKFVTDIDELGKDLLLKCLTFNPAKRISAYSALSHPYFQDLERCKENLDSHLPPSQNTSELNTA
Sequence of CDK6/cyclin D2 (P30279 whole entry): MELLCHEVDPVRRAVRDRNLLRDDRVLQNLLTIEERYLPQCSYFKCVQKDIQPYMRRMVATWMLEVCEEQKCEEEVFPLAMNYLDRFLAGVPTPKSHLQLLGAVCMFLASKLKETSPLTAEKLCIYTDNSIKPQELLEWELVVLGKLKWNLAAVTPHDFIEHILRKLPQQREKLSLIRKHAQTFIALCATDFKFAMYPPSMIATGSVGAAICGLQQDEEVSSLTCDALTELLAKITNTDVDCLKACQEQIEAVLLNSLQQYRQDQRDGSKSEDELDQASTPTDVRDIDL

What is called IC50 is the concentration at which inhibition is half-maximal. For orientation: inhibition means the drop in the measured response relative to a control, in per cent. In the case of `NC1=NC(=O)/C(=C2\CCNC(=O)c3[nH]c(Br)cc32)N1` [HYMENIALDISINE], the concentration for half-maximal inhibition (IC50) in assay [1] was determined as 470 nM; in assay [2], 7000 nM; at CDK3/Cyclin E it was 100 nM; against DNA topoisomerase 1, 10000 nM; in the assay filed under Bos taurus [4], 800 nM; in the assay on KB 3-1, 3100 nM. Further, the IC50 in assay [5] was 600 nM; in assay [6] it was 10000 nM; in assay [8], 25 nM; in [9], 4000 nM; against Casein kinase I it was 35 nM; on Casein kinase 2, 7000 nM. Further, the IC50 in [11] amounted to 1200 nM; against CDK6/cyclin D2 it was 700 nM; in the assay listed under Bos taurus [12] it was 600 nM; in assay [13], 600 nM; in assay [14] it was 8000 nM; in the assay with THP-1 [15], 2400 nM. For the same molecule, the values for the IC50 (against CDK1/Cyclin E; in the assay with THP-1 [16]; in assay [17]) were 40 nM, 1400 nM and 1700 nM, respectively. Besides, in the assay filed under Mus musculus [3], the Activity was found to be 120%. Besides, the inhibition at 3.1 µM in assay [7] came out at 30%. In assay [10], this molecule came in with an inhibition of 90%. The molecule also displayed an EC50 in the assay on L5178Y of 3.5 µg/mL (≈ 10.8 µM).
For orientation: inhibition in vivo means the drop in the measured response relative to a control, in per cent. As to `Nc1nc(C2CCNC(=O)c3[nH]c(Br)c(Br)c32)c[nH]1` (stereo unspecified), in the assay filed under Mus musculus [18], the Activity turned out to be 120%. Also, the inhibition in vivo at 5 mg/kg in the assay with Rattus norvegicus [19] was determined as 90%.
On to `O=C1NCCc2ccccc2-c2c1[nH]c1ccccc21`, for which the IC50 in the assay with MOLT-3 is 9 nM; in the assay on HepG2, 460 nM; against Tubulin it was 7700 nM.
With `Cc1ccc2[nH]c3c(c2c1)CNC(=O)c1[nH]c2ccccc2c1-3`, the IC50 in the assay on A549 was 4200 nM.
As to `NC1=N/C(=C2/CCNC(=O)c3[nH]ccc32)C(=O)N1` [DEBROMOHYMENIALDISINE], the Ratio IC50 in the assay listed under Homo sapiens turned out to be 4. For the same molecule, the inhibition in vivo at 20 mg/kg in the assay on Rattus norvegicus [20] is over 60%. Besides, the IC50 in assay [21] was 250 nM; in assay [8], 112 nM; against Protein kinase C (PKC) it was under 10000 nM; in assay [22] it was 820 nM. In the assay with L5178Y, this molecule had an EC50 of 1.8 µg/mL (≈ 7.34 µM). Also, the inhibition in vivo at 10 mg/kg in the assay with Rattus norvegicus [23] came out at 63%.
For the molecule `O=C1NCc2ccccc2-c2c1sc1ccccc21`, the inhibition of growth at 1 µM with MCF7 is 17%.
For `O=C1NC(=O)/C(=C2/CCNC(=O)c3[nH]c(Br)cc32)N1`, in the assay with P388, the EC50 came to 18 µg/mL (≈ 55.4 µM).
